# Laboratory results: patent US6632616B2, “Compounds that selectively bind to expanded polyglutamine repeat domains and methods of use thereof” (Duke University, priority 2000, dated 2003)
# Entries after “also recorded” stand apart in the source; their conditions may differ. No end group written: not given here.
# Experiments:
# thio-Q62 = experiment: Thioredoxin-polyglutamine turbidity (aggregation) assay, thio-Q62; format: biochemical; settings: for Ability to Inhibit Aggregation: 62 glutamines, 10 days; for inhibition of thio-Q62 aggregation (in words): turbidity at 405 nm, FIG. 2
# Description: (§1) Turbidity assays were performed in 200 μl reactions consisting of thioredoxin-polyglutamine in PBS in 96-well, low protein binding plates. Plates were incubated at 4° C. and turbidity measured at 405 nm on a Thermo Max plate reader (Molecular Devices).
# (§2) Peptides were synthesized at the Howard Hughes Medical Institute peptide sequencing facility at Duke University with an acetylated amino terminus and protection of tryptophan with BOC during synthesis. Identical results were obtained with peptides obtained from Bio-Synthesis Inc. (Lewisville, Tex.). Stock solutions of peptides were prepared fresh daily by dissolving in dimethyl sulfoxide at 2.5 mM and incubated with thioredoxin-polyglutamine protein at 0.25-25 μM.
# (§3) To monitor thioredoxin-polyglutamine protein aggregation a turbidometric assay was developed, similar to the assays commonly used to study microtubule assembly and β-amyloid aggregation (Jarrett, J. T. et al. (1993) Biochem 32, 4693-4697; Sloboda, R. D. et al. (1976) Biochem 15, 4497-4505). Solutions of thio-Q62 and 81 protein increased turbidity in a polyglutamine length-, time- and concentration-dependent manner (FIG. 1B and C; Time dependence of aggregation of thioredoxin-polyglutamine with 81 glutamines not shown). […] The pelleted and retained material was confirmed as thioredoxin-polyglutamine fusion protein containing 62 or 81 glutamines on western blots probed with anti-thioredoxin or anti-polyglutamine antibody (not shown). In contrast, thioredoxin-polyglutamine protein containing 19 or 35 glutamines (thio-Q19 or 35) was not pelleted by centrifugation and was not trapped by a 0.22 μm filter.
# thio-Q19 or 35 = experiment: Thioredoxin-polyglutamine turbidity assay, nonpathologic thio-Q19 or 35; format: biochemical
# Description: as §1, §2, §3
# [1] = test system: Q57-YFP induced cell death; experiment: Q57-YFP induced cell death in co-transfected COS-7 cells (ethidium homodimer); format: cell-based; settings: peptides fused to CFP, co-expressed; for inhibition of Q57-YFP induced cell death: COS-7, 48 hours, ethidium homodimer
# Description: FIG. 5. […] Open bar=cells co-transfected with Q57-YFP and RAN-CFP. Hatched bar=cells co-transfected with Q57-YFP and SCR-CFP. Filled bar=cells co-transfected with Q57-YFP and QBP1-CFP. Dotted bar=cells co-transfected with Q57-YFP and (QBPI)2-CFP. COS-7 cells examined 48 hours after transfection using a Zeiss fluorescence microscope with rhodamine filter set. The percentage of dead cells was calculated by counting the number of transfected cells stained with ethidium homodimer and dividing by the total number of transfected cells multiplied times 100. In each experiment at least 200 transfected cells were counted. Experiments were repeated at least three times. Error bars represent standard errors. *=p<0.05; **=p<0.01 (Student's t-test).
# (§4) COS-7 cells were grown and maintained in Dulbecco's modified Eagles' medium (DMEM) supplemented with 10% fetal calf serum (FCS). Cells were transfected with Effectene according to manufacturer's instructions (Qiagen GmbH, Hilden, Germany). Cells were examined 48 hours after transfection using a Zeiss fluorescence microscope equipped with YFP/CFP filter sets (Omega Optical Inc., Brattleboro, Vt.). The percentage of cells with aggregates was calculated by dividing the number of cells with aggregates by the total number of fluorescent cells, multiplied by 100. Cell viability was examined 48 hours after transfection using ehtidium homodimer (Molecular Probes, Eugene, Oreg.). Cells were incubated with 5 μM ethidium homodimer for 30 minutes (37° C.) and then examined under a fluorescence microscope equipped with a rhodamine filter set. Cells with nuclear fluorescence were counted as dead. In each experiment at least 200 transfected cells were counted. Cells expressing random peptide-CFP (RAN-CFP) and polyglutamine-YFP (Qn-YFP) were used as a control to calculate the relative difference in aggregate formation and cell death. Experiments were repeated at least four times.
# The relationship between polyglutamine protein aggregation and cell death is controversial. To determine whether QBP1 or tandem-QBP1 inhibit polyglutamine-induced cell death, cell membrane permeability to ethidium homodimer was assayed. The membranes of living cells are impermeable to ethidium homodimer and permeability to ethidium homodimer is a well-established measure of cell death. Ethidium homodimer undergoes a 30-fold increase in fluorescence upon binding to nucleic acid allowing easy detection with a fluorescence microscope using a rhodamine filter. QBP1 and tandem QBP1 ((QBP1)2) fused to CFP inhibit Q57-YFP induced cell death (FIG. 5). […] Similar results have also been observed with Q45- and Q81-YFP (not shown).
# Q81-YFP [2] = experiment: Q81-YFP aggregate formation in co-transfected COS-7 cells; format: cell-based; settings: COS-7, 48 hours
# Description: (§5) COS-7 cells examined 48 hours after transfection using a Zeiss fluorescence microscope with the CFP/YFP filter set from Omega Optical Inc. The percentage of cells with aggregates was calculated by counting the number of transfected cells containing aggregate and dividing by the total number of transfected cells multiplied times 100. In each experiment at least 200 transfected cells were counted. Experiments were repeated at least four times. Error bars represent standard errors. *=p<0.05;**=p<0.01 (Student's t-test) […]
# (§6) COS-7 cells were grown and maintained in Dulbecco's modified Eagles' medium (DMEM) supplemented with 10% fetal calf serum (FCS). […] Cells were examined 48 hours after transfection using a Zeiss fluorescence microscope equipped with YFP/CFP filter sets (Omega Optical Inc., Brattleboro, Vt.). The percentage of cells with aggregates was calculated by dividing the number of cells with aggregates by the total number of fluorescent cells, multiplied by 100. […] Cells were incubated with 5 μM ethidium homodimer for 30 minutes (37° C.) and then examined under a fluorescence microscope equipped with a rhodamine filter set. Cells with nuclear fluorescence were counted as dead. In each experiment at least 200 transfected cells were counted. […]
# Q45-YFP = Q45-YFP aggregate formation in co-transfected COS-7 cells; format: cell-based; settings: COS-7, 48 hours
# Description: as §5, §6
# Q57-YFP = Q57-YFP aggregate formation in co-transfected COS-7 cells; format: cell-based; settings: COS-7, 48 hours
# Description: as §5, §6
# Q81-YFP [3] = experiment: Co-localization with Q81-YFP aggregates in co-transfected COS-7 cells; format: cell-based; settings: co-expression, 48 hours after transfection
# Description: (§7) The CAG repeat of the Qn-GFP vector (Onodera, O. et al. (1996) FEBS Letters 399, 135-139) were inserted into the XhoI and EcoRI sites of the pEYFP-N1 vector (Clontech, Palo Alto, Calif.) to construct the Qn-YFP vectors. The polyglutamine-binding peptide and control constructs were prepared by ligating synthetic oligonucleotides into the XhoI and BamHI sites of the pECFP-N1 vector (Clontech) to obtain glutamine binding peptide 1-CFP (QBP1-CFP), scrambled QBP1-CFP (SCR-CFP), and a computer-generated random peptide-CFP (RAN)-CFP. The insert of QBP1-CFP was duplicated by PCR to obtain a tandem repeat of QBP1-CFP ((QBP1)2-CFP). The sequence of all constructs was confirmed by DNA sequencing. The first methionine of YFP or CFP was changed to isoleucine by PCR site-directed mutagenesis to eliminate translation of the fluorescent protein without the polyglutamine domain. The sizes of the fluorescent fusion proteins were confirmed by western blotting.
# as §4, with “Experiments were repeated at least four times.” left out
# [4] = test system: COS 7 cells expressing Q81-YFP; experiment: Peptides added to transfected COS 7 cells expressing Q81-YFP: cell death; format: cell-based
# From the text: (§8) Several proteins can ferry peptides or proteins into cells through the plasma membrane including HIV transactivator protein (TAT) (SEQ ID NO:37), antennapedia (SEQ ID NO:38), and herpes simplex virus type 1 protein 22 (SEQ ID NO:39) (Prochiantz, Curr Opin Cell Biol. 12:400-406 (2000)). […] The arginine-rich domains of these proteins are sufficient to transport some intact proteins even when fused to non-native proteins. The ability of polyglutamine-binding peptides fused to a TAT fragment to enter transfected COS 7 cells and inhibit polyglutamine aggregation and cell death was examined.
# Q81-YFP [5] = experiment: Peptides added to transfected COS 7 cells expressing Q81-YFP: aggregation; format: cell-based
# From the text: as §8
# Qn-YFP = experiment: Polyglutamine-YFP (Qn-YFP) aggregate formation in co-transfected COS-7 cells, all lengths; format: cell-based; settings: co-expression, 48 hours after transfection, FIG. 4
# Description: COS-7 cells examined 48 hours after transfection using a Zeiss fluorescence microscope with the CFP/YFP filter set from Omega Optical Inc. The percentage of cells with aggregates was calculated by counting the number of transfected cells containing aggregate and dividing by the total number of transfected cells multiplied times 100. In each experiment at least 200 transfected cells were counted. Experiments were repeated at least four times. Error bars represent standard errors. *=p<0.05;**=p<0.01 (Student's t-test)
# as §7, with “The first methionine of YFP or CFP was changed to isoleucine by PCR site-directed mutagenesis to eliminate translation of the fluorescent protein without the polyglutamine domain. The sizes of the fluorescent fusion proteins were confirmed by western blotting.” left out
# as §6
# [6] = TAT-fused peptides, 10 μm peptide and 15 μM thio-polyglutamine
# [7] = 5 μm peptide and 15 μM thio-polyglutamine
# [8] = versus random peptide fused to TAT
# Chain of Q81-YFP (as listed by the source): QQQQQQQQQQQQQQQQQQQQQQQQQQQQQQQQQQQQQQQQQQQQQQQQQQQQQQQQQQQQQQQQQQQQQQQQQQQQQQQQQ
# Chain of thio-Q62 (as listed by the source): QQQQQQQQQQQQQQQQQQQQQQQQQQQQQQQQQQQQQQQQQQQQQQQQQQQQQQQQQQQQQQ
# Chain of Q57-YFP (as listed by the source): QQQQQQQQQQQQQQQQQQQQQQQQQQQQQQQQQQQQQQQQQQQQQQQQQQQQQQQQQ
# Chain of Q45-YFP (as listed by the source): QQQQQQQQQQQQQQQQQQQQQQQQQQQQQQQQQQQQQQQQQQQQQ
substance,measurement,setting,value
WKWWVWKWWP-TAT (WKWWVWKWWPGGYGRKKRRQRRR),Ability to Inhibit Aggregation,thio-Q62; [6],++++ (++++ = full inhibition)
WVWWPGIFD,Ability to Inhibit Aggregation,thio-Q62; [7],+++ (+++ = 75% inhibition)
"WPIWSKGNDWF [SCR, reference compound]",effect on turbidity of nonpathologic thio-Q19 or 35,thio-Q19 or 35,no effect
same,inhibition of Q57-YFP induced cell death,[1],does not inhibit cell death
same,inhibition of thio-Q62 aggregation (in words),thio-Q62,did not inhibit aggregation
WKWWPGIF,inhibition of polyglutamine-thioredoxin aggregation (FIG. 6 and 7),thio-Q62,retains full inhibitory activity
WKWWPWKWW-TAT (WKWWPWKWWGGYGRKKRRQRRR),Ability to Inhibit Aggregation,thio-Q62; [6],++++ (++++ = full inhibition)
"LSLMEFGCRGA [RAN, computer-generated random 11 amino acid peptide, reference compound]",effect on turbidity of nonpathologic thio-Q19 or 35,thio-Q19 or 35,no effect
same,inhibition of thio-Q62 aggregation (in words),thio-Q62,did not inhibit aggregation
"SNWKWWPGIFDSNWKWWPGIFD [(QBP1)2, tandem repeat of QBP1]",inhibition of cell death compared with monomer QBP1,[1],more effective
same,inhibition of Q57-YFP induced cell death,[1],inhibit
WDWWPGIFD,Ability to Inhibit Aggregation,thio-Q62; [7],++ (++ = 50% inhibition)
WKWWVWKWWP,Ability to Inhibit Aggregation,thio-Q62; [7],++++ (++++ = full inhibition)
SCR-CFP: scrambled QBP1 fused to cyan fluorescent protein (WPIWSKGNDWF; also: fused to cyan fluorescent protein) [reference compound],effect on Q81-YFP aggregation (in words),Q81-YFP [2],did not alter aggregation
same,effect on Q45-YFP aggregation (in words),Q45-YFP,did not alter aggregation
same,effect on Q57-YFP aggregation (in words),Q57-YFP,did not alter aggregation
same,co-localization with Q81-YFP aggregates,Q81-YFP [3],did not co-localize
WKWWPGIFD-TAT (WKWWPGIFDGGYGRKKRRQRRR),Ability to Inhibit Aggregation,thio-Q62; [6],+++ (+++ = 75% inhibition)
same,inhibition of cell death,[4]; [8],39%
same,percentage of transfected cells that died,[4]; within 72 hours,6.0%
same,percentage of transfected cells with Q81-YFP aggregates,Q81-YFP [5]; peptide added to cells,22.1%
same,inhibition of Q81-YFP aggregation,Q81-YFP [5]; [8],32%
SNWKWWPGIFD [QBP1],effect on Q81-YFP aggregation (in words),Q81-YFP [2],did not reach statistical significance
same,effect on turbidity of nonpathologic thio-Q19 or 35,thio-Q19 or 35,no effect
same,reduction of Q57-YFP aggregation,Q57-YFP; compared to cells co-expressing RAN-CFP,26%
same,inhibition of Q57-YFP induced cell death,[1],inhibit; also recorded: inhibits polyglutamine-mediated cell death
same,reversal of thio-Q62 aggregation,thio-Q62; peptide added after aggregation,did not reverse aggregation
same,inhibition of thio-Q62 aggregation (in words),thio-Q62,potently inhibited
same,inhibition of thio-Q62 aggregation (in words),thio-Q62; listed as QBP 1,inhibits thio-Q62 aggregation in a concentration-dependent pattern
same,effect on percentage of cells with polyglutamine aggregates,Qn-YFP,decreases the number of cells containing polyglutamine aggregates
